From ChEMBL document CHEMBL4431320 (J Med Chem, 2016)
Activity calls are given as the source filed them. No cut-off for these calls is given here.

Assays:
[1] = molecular target: Cholinesterase (Equus caballus) (UniProt P81908); test: Inhibition of equine BuChE at 10 uM using ACTI as substrate preincubated for 29 mins followed by substrate addition measured at 1 min intervals for 10 mins by Ellman's assay
Cholinesterase [2] = molecular target: Cholinesterase (Equus caballus, UniProt P81908)
Description: Inhibition of equine BuChE using ACTI as substrate preincubated for 29 mins followed by substrate addition measured at 1 min intervals for 10 mins by Ellman's assay

[3] = molecular target: Acetylcholinesterase (Electrophorus electricus) (UniProt O42275); test: Inhibition of electric eel AChE at 10 uM using ACTI as substrate preincubated for 29 mins followed by substrate addition measured at 1 min intervals for 10 mins by Ellman's assay
[4] = Permeability of compound at 10 uM after 4 hrs by PAMPA; format: ADME; details: read-out: permeability
SH-SY5Y = test: Cytotoxicity against human SH-SY5Y cells at 0.5 to 10 uM after 48 hrs by MTT assay; format: cell-based
[5] = molecular target: Acetylcholinesterase (Homo sapiens) (UniProt P22303); test: Inhibition of human AChE at 10 uM using ACTI as substrate incubated for 40 mins measured at 1 min intervals for 10 mins by Ellman's assay
[6] = Selectivity ratio of IC50 for equine BuChE to IC50 for human BuChE
[7] = Stability of compound in crystallization buffer at pH 7.4 at 0.1 mg/mL incubated for 24 hrs by RP-HPLC analysis in presence of equine BuChE; format: physicochemical; details: pH 7.4, 24 h
Cholinesterase [8] = molecular target: Cholinesterase (Homo sapiens, UniProt P06276)
Description: Inhibition of human BuChE using ACTI as substrate incubated for 40 mins measured at 1 min intervals for 10 mins by Ellman's assay

[9] = Stability of compound in crystallization buffer at pH 7.4 at 0.1 mg/mL incubated for 24 hrs by RP-HPLC analysis; format: physicochemical; details: pH 7.4, 24 h

Sequence of Cholinesterase (Equus caballus, UniProt P81908) (P81908 whole entry): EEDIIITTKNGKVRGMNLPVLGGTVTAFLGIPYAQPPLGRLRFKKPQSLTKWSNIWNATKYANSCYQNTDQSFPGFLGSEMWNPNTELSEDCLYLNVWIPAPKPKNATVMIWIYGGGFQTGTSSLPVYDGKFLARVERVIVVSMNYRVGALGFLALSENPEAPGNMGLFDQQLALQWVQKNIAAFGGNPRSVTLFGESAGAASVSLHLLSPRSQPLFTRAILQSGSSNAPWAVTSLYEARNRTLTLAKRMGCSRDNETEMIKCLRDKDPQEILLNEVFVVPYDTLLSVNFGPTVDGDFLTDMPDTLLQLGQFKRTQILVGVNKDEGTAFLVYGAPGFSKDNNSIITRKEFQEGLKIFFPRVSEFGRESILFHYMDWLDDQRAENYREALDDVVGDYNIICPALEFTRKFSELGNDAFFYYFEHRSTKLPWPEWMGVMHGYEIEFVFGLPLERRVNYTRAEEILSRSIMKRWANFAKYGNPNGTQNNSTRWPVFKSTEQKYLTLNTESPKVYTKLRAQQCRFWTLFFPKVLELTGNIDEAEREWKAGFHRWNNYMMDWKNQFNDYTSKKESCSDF
Sequence of Cholinesterase (Equus caballus) (P81908 whole entry): as above
Sequence of Acetylcholinesterase (Electrophorus electricus) (O42275 24-633 limits assumed): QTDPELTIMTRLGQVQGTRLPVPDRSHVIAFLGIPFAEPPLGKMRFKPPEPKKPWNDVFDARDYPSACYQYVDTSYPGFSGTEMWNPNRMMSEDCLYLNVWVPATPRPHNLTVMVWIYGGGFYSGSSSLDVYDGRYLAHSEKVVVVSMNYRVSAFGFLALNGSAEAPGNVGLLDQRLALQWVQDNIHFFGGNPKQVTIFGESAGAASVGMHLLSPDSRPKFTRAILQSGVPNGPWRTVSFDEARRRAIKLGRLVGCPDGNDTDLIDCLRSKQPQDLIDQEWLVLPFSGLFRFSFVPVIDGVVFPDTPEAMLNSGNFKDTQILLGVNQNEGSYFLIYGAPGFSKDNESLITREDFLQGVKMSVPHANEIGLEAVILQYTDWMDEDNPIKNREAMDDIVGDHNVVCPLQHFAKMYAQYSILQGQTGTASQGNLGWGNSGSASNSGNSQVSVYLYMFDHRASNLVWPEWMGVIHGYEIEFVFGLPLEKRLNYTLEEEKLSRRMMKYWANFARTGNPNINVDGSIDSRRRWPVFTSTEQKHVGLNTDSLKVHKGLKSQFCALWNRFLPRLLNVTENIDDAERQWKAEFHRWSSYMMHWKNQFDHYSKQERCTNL
Sequence of Acetylcholinesterase (Homo sapiens) (P22303 whole entry): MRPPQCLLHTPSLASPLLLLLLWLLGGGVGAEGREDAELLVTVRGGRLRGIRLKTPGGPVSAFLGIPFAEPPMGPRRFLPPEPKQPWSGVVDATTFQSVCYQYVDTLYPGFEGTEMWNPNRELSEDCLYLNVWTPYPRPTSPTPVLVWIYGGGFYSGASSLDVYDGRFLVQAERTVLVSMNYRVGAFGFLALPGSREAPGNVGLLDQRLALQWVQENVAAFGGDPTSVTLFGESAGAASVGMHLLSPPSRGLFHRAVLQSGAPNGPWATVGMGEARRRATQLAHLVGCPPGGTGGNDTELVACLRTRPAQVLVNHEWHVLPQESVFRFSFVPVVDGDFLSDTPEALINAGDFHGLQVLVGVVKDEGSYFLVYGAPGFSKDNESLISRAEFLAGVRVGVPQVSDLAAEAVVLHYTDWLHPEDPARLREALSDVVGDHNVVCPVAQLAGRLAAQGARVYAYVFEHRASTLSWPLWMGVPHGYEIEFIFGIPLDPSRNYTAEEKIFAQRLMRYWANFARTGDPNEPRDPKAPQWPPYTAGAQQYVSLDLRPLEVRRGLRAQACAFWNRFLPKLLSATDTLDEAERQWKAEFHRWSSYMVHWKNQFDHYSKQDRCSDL
Sequence of Cholinesterase (Homo sapiens, UniProt P06276) (P06276 whole entry): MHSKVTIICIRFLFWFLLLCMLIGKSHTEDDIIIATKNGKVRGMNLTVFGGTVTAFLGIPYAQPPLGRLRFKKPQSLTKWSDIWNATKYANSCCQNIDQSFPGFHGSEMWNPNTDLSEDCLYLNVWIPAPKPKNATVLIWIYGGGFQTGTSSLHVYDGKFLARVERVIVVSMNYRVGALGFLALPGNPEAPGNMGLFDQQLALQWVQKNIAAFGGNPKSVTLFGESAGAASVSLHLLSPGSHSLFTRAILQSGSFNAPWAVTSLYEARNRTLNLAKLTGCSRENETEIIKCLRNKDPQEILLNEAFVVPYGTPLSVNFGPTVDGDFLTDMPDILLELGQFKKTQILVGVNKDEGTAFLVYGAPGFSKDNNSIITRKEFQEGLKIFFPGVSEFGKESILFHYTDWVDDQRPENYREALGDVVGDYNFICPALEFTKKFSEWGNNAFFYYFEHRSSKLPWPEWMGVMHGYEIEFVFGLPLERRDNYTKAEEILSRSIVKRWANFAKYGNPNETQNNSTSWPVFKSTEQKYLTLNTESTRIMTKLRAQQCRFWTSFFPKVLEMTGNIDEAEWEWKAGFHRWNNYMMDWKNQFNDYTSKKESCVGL

CCn1c2ccccc2c2cc(C3C(C(=O)OC)=C(C)NC4=C3C(=O)CCC4)ccc21 (stereo unspecified)
inhibition [1]: 49.5%

Cc1cc2nc([C@@H]3CCCN3C(=O)[C@H]3C[C@@H](O)CN3Cc3ccccc3)[nH]c2cc1C
IC50 (Cholinesterase [2]): 46.8 µM | inhibition [3]: inactive | inhibition [1]: 17.5%

O[C@H](CN1CCN(c2ccccc2)CC1)c1c[nH]c2ccc(F)cc12
inhibition [3]: 2.69% | inhibition [1]: 1.31%

Cc1cc(C)n(C[C@H](O)CN(Cc2nc3ccccc3[nH]2)Cc2ccco2)n1
inhibition [3]: 2.32% | inhibition [1]: 6.33%

CCn1c2ccccc2c2cc(C3C(C(=O)OC4CCCC4)=C(C)NC4=C3C(=O)CC(C)(C)C4)ccc21 (stereo unspecified)
inhibition [1]: 2.53%

CN(CC(=O)Nc1ccccc1F)S(=O)(=O)c1ccc2ccccc2c1
inhibition [3]: 3.43% | inhibition [1]: 5.64%

CCn1c2ccccc2c2cc(C3C(C(=O)OCC4CCCO4)=C(C)NC4=C3C(=O)CCC4)ccc21 (stereo unspecified)
IC50 (Cholinesterase [2]): 0.763 µM | Papp at 4 h, 10 µM [4]: 2.46 ×10⁻⁶ cm/s | inhibition [3]: 1.73% | Activity (SH-SY5Y): Non-Toxic | inhibition [1]: 84.2% | inhibition [5]: inactive | Ratio IC50 [6]: 2 | Stability [7]: Stable | IC50 (Cholinesterase [8]): 443 nM | Stability [9]: Stable

O=C(CS[C@@H]1CC(=O)N(c2ccccc2)C1=O)Nc1ccccc1F
inhibition [3]: 0.484% | inhibition [1]: 6.01%

CCCCOC(=O)C1=C(C)NC2=C(C(=O)CCC2)C1c1ccc2c(c1)c1ccccc1n2CC (stereo unspecified)
inhibition [1]: 53.7%

Cc1cccc(C2(O)CCN(Cc3c(-c4cccs4)[nH]c4ncccc34)CC2)c1
IC50 (Cholinesterase [2]): 48.9 µM | inhibition [3]: 2.14% | inhibition [1]: 16.2%

CCC(C)OC(=O)C1=C(C)NC2=C(C(=O)CC(C)(C)C2)C1c1ccc2c(c1)c1ccccc1n2CC (stereo unspecified)
inhibition [1]: inactive

CCCCSc1nc2c(c(=O)[nH]c(=O)n2C)n1C[C@@H](O)COc1cccc2ccccc12
inhibition [3]: 5.34% | inhibition [1]: 3.69%

Cc1ccccc1-n1nc(C)c(CN(CCN(C)C)Cc2ccccn2)c1C
IC50 (Cholinesterase [2]): 19.2 µM | inhibition [3]: 2.46% | inhibition [1]: 31.9%

CCSCCOC(=O)C1=C(C)NC2=C(C(=O)CCC2)C1c1ccc2c(c1)c1ccccc1n2CC (stereo unspecified)
inhibition [1]: 51.2%

O=C(O)[C@H](Cc1c[nH]c2ccccc12)Nc1ncnc2c1oc1ccccc12
inhibition [3]: 1.45% | inhibition [1]: 7.18%

CCOCCOC(=O)C1=C(C)NC2=C(C(=O)CC(C)(C)C2)C1c1ccc2c(c1)c1ccccc1n2CC (stereo unspecified)
inhibition [1]: 2.49%

O=C(Cn1cc(C(=O)C2CC2)c2ccccc21)NCCc1c[nH]c2ccccc12
inhibition [3]: 3.44% | inhibition [1]: 7.28%

CCn1c2ccccc2c2cc([C@@H]3C(C(=O)OCCOC)=C(C)NC4=C3C(=O)CCC4)ccc21
IC50 (Cholinesterase [2]): 9.72 µM | inhibition [3]: 1.35% | inhibition [1]: 52.7%

COc1ccccc1NC(=O)Cn1c(CCC(=O)O)ccc1-c1ccccc1
inhibition [3]: 2.2% | inhibition [1]: 5.54%

CCOC(=O)N1CCN([C@H]2CC(=O)N(c3cccc4ccccc34)C2=O)CC1
inhibition [3]: 4.93% | inhibition [1]: 1.85%
